Like-named read-outs stand apart in the source and are kept apart here.
System: T1, NozMT
T1 construct: N-terminal hexahistidine-tagged, codon-optimized synthetic gene in pQE31, E. coli M15(pREP4), Ni-NTA purified
Experiment: initial rates, HPLC-UV […] nm, Michaelis-Menten fit
Type: biochemical, Nocardiopsis sp. CMB-M0232
Conditions: 2 mM SAM, 10 μM enzyme, 40 mM Tris pH 7.5, 200 mM NaCl, 1% DMSO, 37 °C

SMILES | Km (N1' methylation, read-out: apparent average Km) [µM] | Km (C3 methylation, read-out: apparent Km) [µM]
CC(C)=CC[C@]12C[C@@H]3C(=O)N[C@H](Cc4c[nH]c5ccccc45)C(=O)N3[C@H]1Nc1ccccc12 [compound 6, cyclo-D-Trp-C3'-prenyl-D-Trp] | 146 | 
CC(C)=CC[C@]12C[C@@H]3C(=O)N[C@H](Cc4c[nH]c5ccccc45)C(=O)N3[C@H]1N(C)c1ccccc12 [compound 7, cyclo-D-Trp-N1'-methyl-C3'-prenyl-D-Trp] |  | 606
